Data reported in patent US8642799B2, “Cysteine protease inhibitors for the treatment of parasitic diseases” (Merck Canada Inc., priority 2007, dated 2014).

target: cruzipain (Trypanosoma cruzi, UniProt P25779); assay: biochemical; conditions: 50 pM cruzipain, pH 5.5, 15 minutes preincubation, 2 μM Z-Phe-Arg-AMC substrate
Protocol: The assay solutions were mixed and incubated for 15 minutes at room temperature prior to the addition of 2 μM of Z-Phe-Arg-AMC substrate. […] Percent of inhibition were calculated by fitting experimental values to standard mathematical model for dose response curve.

cruzipain, sequence (P25779 123-467): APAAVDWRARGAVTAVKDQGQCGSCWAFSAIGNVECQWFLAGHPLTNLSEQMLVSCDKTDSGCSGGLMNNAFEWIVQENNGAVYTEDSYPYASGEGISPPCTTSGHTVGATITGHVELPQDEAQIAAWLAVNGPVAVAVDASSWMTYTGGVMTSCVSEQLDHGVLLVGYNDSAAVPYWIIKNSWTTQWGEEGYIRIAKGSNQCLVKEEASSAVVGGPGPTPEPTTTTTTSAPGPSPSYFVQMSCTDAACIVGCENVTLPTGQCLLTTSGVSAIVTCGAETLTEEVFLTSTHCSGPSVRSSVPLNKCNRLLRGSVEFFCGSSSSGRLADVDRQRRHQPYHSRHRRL

Row | IC50 | Compound
1 | 3.7 nM | CC(C)(F)C[C@H](N[C@@H](c1ccc(-c2ccc(C3(C(=O)NC4CC4)CC3)cc2)cc1)C(F)(F)F)C(=O)N[C@H](C#N)Cc1ccccc1 [Example 56, 1-[4′-((S)-1-{(S)-1-[((S)-Benzyl-cyano-methyl)-carbamoyl]-3-fluoro-3-methyl-butylamino}-2,2,2-trifluoro-ethyl)-biphenyl-4-yl]-cyclopropanecarboxylic acid cyclopropylamide]
2 | 4.3 nM | C=CCNC(=O)C1(c2ccc(-c3ccc([C@H](N[C@@H](CC(C)(C)F)C(=O)N[C@H](C#N)Cc4ccccc4)C(F)(F)F)cc3)cc2)CC1 [Example 57, 1-[4′-((S)-1-{(S)-1-[((S)-Benzyl-cyano-methyl)-carbamoyl]-3-fluoro-3-methyl-butylamino}-2,2,2-trifluoro-ethyl)-biphenyl-4-yl]-cyclopropanecarboxylic acid allylamide]
3 | 0.3 nM | CC(C)[C@H](N[C@@H](c1ccc(-c2ccc(C3(C(=O)O)CC3)cc2)cc1)C(F)(F)F)C(=O)N[C@H](C#N)Cc1ccc(C#N)cc1F [Example 58, 1-{4′-[(S)-1-((S)-1-{[(S)-Cyano-(4-cyano-2-fluoro-benzyl)-methyl]-carbamoyl}-2-methyl-propylamino)-2,2,2-trifluoro-ethyl]-biphenyl-4-yl}-cyclopropanecarboxylic acid]
4 | 0.1 nM | CC(C)[C@H](N[C@@H](c1ccc(-c2ccc(C3(C(=O)NCCO)CC3)cc2)cc1)C(F)(F)F)C(=O)N[C@H](C#N)Cc1ccc(C#N)cc1F [Example 59, 1-{4′-[(S)-1-((S)-1-{[(S)-Cyano-(4-cyano-2-fluoro-benzyl)-methyl]-carbamoyl}-2-methyl-propylamino)-2,2,2-trifluoro-ethyl]-biphenyl-4-yl}-cyclopropanecarboxylic acid (2-hydroxy-ethyl)-amide]
5 | 1.5 nM | CC(C)[C@H](N[C@@H](c1ccc(-c2ccc([C@@H](O)C(F)F)cc2)cc1)C(F)(F)F)C(=O)N[C@H](C#N)Cc1ccc(C(F)(F)F)cc1F [Example 61, (S)-N-[(S)-Cyano-(2-fluoro-4-trifluoromethyl-benzyl)-methyl]-2-{(S)-1-[4′-((R)-2,2-difluoro-1-hydroxy-ethyl)-biphenyl-4-yl]-2,2,2-trifluoro-ethylamino}-3-methyl-butyramide]
6 | 0.4 nM | CC(C)[C@H](N[C@@H](c1ccc(-c2ccc(S(C)(=O)=O)cc2)cc1)C(F)(F)F)C(=O)N[C@H](C#N)Cc1ccc(C(F)(F)F)cc1F [Example 62, (S)-N-[(S)-Cyano-(2-fluoro-4-trifluoromethyl-benzyl)-methyl]-3-methyl-2-[(S)-2,2,2-trifluoro-1-(4′-methanesulfonyl-biphenyl-4-yl)-ethylamino]-butyramide]
7 | 12.6 nM | CC(C)(F)C[C@H](N[C@@H](c1ccc(-c2ccc(S(C)(=O)=O)cc2)cc1)C(F)(F)F)C(=O)N[C@H](C#N)Cc1cccnc1 [Example 64, (S)-4-Fluoro-4-methyl-2-[(S)-2,2,2-trifluoro-1-(4′-methanesulfonyl-biphenyl-4-yl)-ethylamino]-pentanoic acid ((S)-cyano-pyridin-3-ylmethyl-methyl)-amide]
8 | 15 nM | CC(C)(F)C[C@H](N[C@@H](c1ccc(-c2ccc(S(C)(=O)=O)cc2)cc1)C(F)(F)F)C(=O)N[C@H](C#N)Cc1cccc[n+]1[O-] [Example 65, (S)-4-Fluoro-4-methyl-2-[(S)-2,2,2-trifluoro-1-(4′-methanesulfonyl-biphenyl-4-yl)-ethylamino]-pentanoic acid [(S)-cyano-(1-oxy-pyridin-2-ylmethyl)-methyl]-amide]
9 | 1.6 nM | CC(C)(F)C[C@H](N[C@@H](c1ccc(-c2ccc(S(C)(=O)=O)cc2)cc1)C(F)(F)F)C(=O)N[C@H](C#N)Cc1c(F)cc(Br)cc1F [Example 66, (S)-4-Fluoro-4-methyl-2-[(S)-2,2,2-trifluoro-1-(4′-methanesulfonyl-biphenyl-4-yl)-ethylamino]-pentanoic acid [(S)-(4-bromo-2,6-difluorobenzyl)-cyano-methyl]-amide]
10 | 0.9 nM | CC(C)(F)C[C@H](N[C@@H](c1ccc(-c2ccc(S(C)(=O)=O)cc2)cc1)C(F)(F)F)C(=O)N[C@H](C#N)Cc1c(F)cc(C#N)cc1F [Example 67, (S)-4-Fluoro-4-methyl-2-[(S)-2,2,2-trifluoro-1-(4′-methanesulfonyl-biphenyl-4-yl)-ethylamino]-pentanoic acid [(S)-cyano-(4-cyano-2,6-difluoro-benzyl)-methyl]-amide]
11 | 4.4 nM | CS(=O)(=O)c1ccc(-c2ccc([C@H](N[C@H](C(=O)N[C@H](C#N)Cc3ccc(C#N)cc3F)C3CC3)C(F)(F)F)cc2)cc1 [Example 68, (S)-N-[(S)-Cyano-(4-cyano-2-fluoro-benzyl)-methyl]-2-cyclopropyl-2-[(S)-2,2,2-trifluoro-1-(4′-methanesulfonyl-biphenyl-4-yl)-ethylamino]-acetamide]
12 | 4.3 nM | N#Cc1ccc(C[C@@H](C#N)NC(=O)[C@@H](N[C@@H](c2ccc(-c3ccc([C@@H](O)C(F)F)cc3)cc2)C(F)(F)F)C2CC2)c(F)c1 [Example 69, (S)-N-[(S)-Cyano-(4-cyano-2-fluoro-benzyl)-methyl]-2-cyclopropyl-2-{(S)-1-[4′-((R)-2,2-difluoro-1-hydroxy-ethyl)-biphenyl-4-yl]-2,2,2-trifluoro-ethylamino}-acetamide]
13 | 0.6 nM | CC(C)[C@H](N[C@@H](c1ccc(-c2ccc(S(C)(=O)=O)cc2)cc1)C(F)(F)F)C(=O)N[C@H](C#N)Cc1c(F)cc(Br)cc1F [Example 70, (S)-N-[(S)-(4-Bromo-2,6-difluoro-benzyl)-cyano-methyl]-3-methyl-2-[(S)-2,2,2-trifluoro-1-(4′-methanesulfonyl-biphenyl-4-yl)-ethylamino]-butyramide]
14 | 2.1 nM | CC(C)[C@H](N[C@@H](c1ccc(-c2ccc([C@@H](O)C(F)F)cc2)cc1)C(F)(F)F)C(=O)N[C@H](C#N)Cc1c(F)cc(Br)cc1F [Example 71, (S)-N-[(S)-(4-Bromo-2,6-difluoro-benzyl)-cyano-methyl]-2-{(S)-1-[4′-((R)-2,2-difluoro-1-hydroxy-ethyl)-biphenyl-4-yl]-2,2,2-trifluoro-ethylamino}-3-methyl-butyramide]
15 | 0.5 nM | CC(C)[C@H](N[C@@H](c1ccc(-c2ccc(S(C)(=O)=O)cc2)cc1)C(F)(F)F)C(=O)N[C@H](C#N)Cc1c(F)cc(C#N)cc1F [Example 72, (S)-N-[(S)-Cyano-(4-cyano-2,6-difluoro-benzyl)-methyl]-3-methyl-2-[(S)-2,2,2-trifluoro-1-(4,- methanesulfonyl-biphenyl-4-yl)-ethylamino]-butyramide]
16 | 0.7 nM | CC(C)[C@H](N[C@@H](c1ccc(-c2ccc([C@@H](O)C(F)F)cc2)cc1)C(F)(F)F)C(=O)N[C@H](C#N)Cc1c(F)cc(C#N)cc1F [Example 73, (S)-N-[(S)-Cyano-(4-cyano-2,6-difluoro-benzyl)-methyl]-2-{(S)-1-[4,- ((R)-2,2-difluoro-1-hydroxy-ethyl)-biphenyl-4-yl]-2,2,2-trifluoro-ethylamino}-3-methyl-butyramide]
17 | 39 nM | CC(C)(F)C[C@H](N[C@@H](c1ccc(-c2ccc(S(C)(=O)=O)cc2)cc1)C(F)(F)F)C(=O)N[C@H](C#N)Cc1ccc[n+]([O-])c1 [Example 74, (S)-4-Fluoro-4-methyl-2-[(S)-2,2,2-trifluoro-1-(4′-methanesulfonyl-biphenyl-4-yl)-ethylamino]-pentanoic acid [(S)-cyano-(1-oxy-pyridin-3-ylmethyl)-methyl]-amide]
18 | 120 nM | CC(C)(F)C[C@H](N[C@@H](c1ccc(-c2ccc(S(C)(=O)=O)cc2)cc1)C(F)(F)F)C(=O)N[C@H](C#N)Cc1cc[n+]([O-])cc1 [Example 75, (S)-4-Fluoro-4-methyl-2-[(S)-2,2,2-trifluoro-1-(4′-methanesulfonyl-biphenyl-4-yl)-ethylamino]-pentanoic acid [(S)-cyano-(1-oxy-pyridin-4-ylmethyl)-methyl]-amide]
19 | 7.1 nM | CC(C)(F)C[C@H](N[C@@H](c1ccc(-c2ccc(S(C)(=O)=O)cc2)cc1)C(F)(F)F)C(=O)N[C@H](C#N)Cc1c(F)cccc1F [Example 76, (S)-4-Fluoro-4-methyl-2-[(S)-2,2,2-trifluoro-1-(4′-methanesulfonyl-biphenyl-4-yl)-ethylamino]-pentanoic acid [(S)-cyano-(2,6-difluoro-benzyl)-methyl]-amide]
